Here are results for five molecules from article PMC8715119, “Second-generation non-hematopoietic erythropoietin-derived peptide for neuroprotection” (Redox Biology, 2021).

The test system of one test is EPOR. Particulars: as previously reported; cited from earlier work. How it is done:
(§1) All peptides including ML1, ML1-c1, ML1-c2, ML1-c3, ML1-h1, ML1-h2, and ML1-h3 were synthesized as monomers by solid-phase peptide synthesis. […] To evaluate the purity and concentration of the peptides, LC/MSD (HP 1100 series) and HPLC analyses (SHIMADZU prominence HPLC) were performed. We obtained peptides having >95% purity and then dissolved with DMSO or water as a high ...

The conditions of test [1]: as previously reported; cited from earlier work. How it is done:
as §1

The next test deals with EphB4 (Homo sapiens) (UniProt P54760). The following applies: cited from earlier work.
Test [2] concerns differentiated neuronal PC12 cells. The test can be described thus: Cell viability (MTS) under H2O2-induced oxidative stress. Type of test: cell-based, rat. Particulars: 300 μM H2O2 for 24 h; peptides 1 ng/ml, reEPO 0.5 IU/ml; MTS; n = 3; Fig. 1c. How it is done:
(§2) PC12 cells (#CRL-1721, ATCC, USA), a rat pheochromocytoma cell line derived from the adrenal medulla (#CRL-1721, ATCC, USA), were seeded on a dish, which was coated by poly L-lysine (0.01%; Sigma Chemical Co., USA), and grown in RPMI 1640 medium (#11875093, Gibco, USA), supplemented with 10% heat-inactivated horse serum (#26050088, Gibco, USA), 5% fetal bovine serum (FBS) (#SH30919.03, Hyclone, USA), and 1% penicillin/streptomycin at 37°C with 5% CO2. For neuronal differentiation, PC12 cells were plated at a density of 1.25x10^3 cell/cm^2 into 96-well plates coated with collagen 1 (#354236, BD Biosciences, USA) and grown in RPMI 1640 medium supplemented with 50 ng/ml nerve growth factor (NGF) (BD Biosciences, USA) and 0.5% FBS for 10 days. The NGF-supplemented media was replaced with fresh media every 3 days during neuronal differentiation.
(§3) Cell viability was evaluated by 3-[(4,5-dimethylthiazol-2-yl)-5,3-carboxymethoxyphenyl]-2-(4-sulfophenyl)-2H tetrazolium, inner salt (MTS) reduction assay (CellTiter 96 Aqueous One Solution Cell Proliferation Assay, Promega, Madison, WI, USA). Briefly, differentiated neuronal-PC12 cells were treated with H2O2 (300 μM) with or without reEPO and peptides for 24 h. The PC12 cells were washed with PBS; 20 ul MTS solution was added to each well with 100 μl PBS, and the cells were incubated for 3 h at 37°C and 5% CO2. The intracellular soluble formazan produced by cellular reduction of the MTS was determined by recording the absorbance at 490 nm using a microplate reader (VersaMax, Molecular Devices, USA). Cell proliferation was also evaluated by the MTS assay. Undifferentiated PC12 cells were seeded into a 96-well plate (5x10^4 cells/well). The next day, the initial cell number was counted; after 48 h, under low FBS concentration (0.5%), with or without reEPO and peptides, cell number was measured by the MTS assay.

Test [3] has as its system undifferentiated PC12 cells. The test can be described thus: Cell proliferation (MTS) under low serum. Type of test: cell-based, rat. Particulars: 0.5% fetal bovine serum, 48 h, reEPO 10 IU/ml, peptides 10 ng/ml, n = 5, Fig. 4c. How it is done: PC12 cells (#CRL-1721, ATCC, USA), a rat pheochromocytoma cell line derived from the adrenal medulla (#CRL-1721, ATCC, USA), were seeded on a dish, which was coated by poly L-lysine (0.01%; Sigma Chemical Co., USA), and grown in RPMI 1640 medium (#11875093, Gibco, USA), supplemented with 10% heat-inactivated horse serum (#26050088, Gibco, USA), 5% fetal bovine serum (FBS) (#SH30919.03, Hyclone, USA), and 1% penicillin/streptomycin at 37°C with 5% CO2. […]
as §3, with “Briefly, differentiated neuronal-PC12 cells were treated with H2O2 (300 μM) with or without reEPO and peptides for 24 h. The PC12 cells were washed with PBS; 20 ul MTS solution was added to each well with 100 μl PBS, and the cells were incubated for 3 h at 37°C and 5% CO2.” left out, “Undifferentiated PC12 cells were seeded into a 96-well plate (5x10^4 cells/well).” left out

Test [4] has as its system differentiated neuronal PC12 cells. Put plainly: Cellular ROS level by H2DCFDA under H2O2. It counts as cell-based, rat. Particulars: H2O2 for 6 h; H2DCFDA staining; n = 5; Fig. 4b. How it is done:
as §2
The cellular ROS level was measured using 2′,7′-dichlorodihydrofluorescein diacetate (H2DCFDA) (#D399, Invitrogen, USA). The cells were incubated with 5 μM H2DCFDA in PBS for 30 min, washed with PBS, and then resuspended in the medium for 2 h. After treatment of H2O2 without or with reEPO, or peptide, we monitored the oxidative stress by measuring the fluorescence intensities of H2DCFDA by using excitation and emission wavelengths of 485 nm and 535 nm, respectively.

In test [5] the target is T1, Soluble recombinant human EPOR-Fc chimera protein (human, UniProt P19235 25-250).
T1 construct: erythropoietin receptor (EPOR), human, soluble form fused to Fc; the discussion says the SPR analysis was based on only the extracellular domain of EPOR; also called erythropoietin receptor; source: bought: R&D Systems (#963-ER)
T1 sequence (looked up): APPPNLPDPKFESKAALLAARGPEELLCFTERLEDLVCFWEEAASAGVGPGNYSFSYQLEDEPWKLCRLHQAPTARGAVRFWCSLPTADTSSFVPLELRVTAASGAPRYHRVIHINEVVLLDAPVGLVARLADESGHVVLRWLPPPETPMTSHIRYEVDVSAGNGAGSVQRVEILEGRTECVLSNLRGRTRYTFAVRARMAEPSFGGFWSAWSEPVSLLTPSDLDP
Put plainly: SPR; Reichert SR 7500 C; EPOR-Fc covalently immobilised by amine coupling on a carboxymethylated dextran chip; peptides at 5, 2.5 and 1.25 uM flowed at 5 ul/min, in duplicate; regeneration with 25 mM acetic acid. Particulars: both partners purified.

Usually Kd stands for the free concentration of one partner at which half of the binding sites on the other are occupied at equilibrium, for simple one-to-one binding.

Chain of EphB4 (Homo sapiens) (P54760 16-539): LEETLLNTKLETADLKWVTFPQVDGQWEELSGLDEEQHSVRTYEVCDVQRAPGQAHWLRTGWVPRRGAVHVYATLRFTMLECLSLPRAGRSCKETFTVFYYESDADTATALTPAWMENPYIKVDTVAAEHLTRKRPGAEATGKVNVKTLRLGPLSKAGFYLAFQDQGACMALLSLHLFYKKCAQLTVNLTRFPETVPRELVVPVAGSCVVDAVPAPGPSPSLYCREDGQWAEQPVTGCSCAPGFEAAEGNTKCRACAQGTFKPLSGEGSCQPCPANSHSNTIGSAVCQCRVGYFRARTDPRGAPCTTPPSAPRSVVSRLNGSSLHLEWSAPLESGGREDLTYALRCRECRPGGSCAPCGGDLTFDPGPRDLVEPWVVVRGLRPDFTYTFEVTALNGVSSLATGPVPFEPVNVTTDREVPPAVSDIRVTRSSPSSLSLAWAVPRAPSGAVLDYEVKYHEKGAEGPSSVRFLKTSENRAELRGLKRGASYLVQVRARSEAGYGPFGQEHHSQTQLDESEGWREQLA

In the case of “AMELSGRTLGLILKLRQSATL [negative control peptide]”, in the test on EPOR, the “Binding to EPOR” value is given as “did not bind to EPOR”. Also, in test [1], the “Effect on cell survival and proliferation” value was “unaffected cell survival and proliferation”.

For EPO (from UniProt P01588), in the test with EphB4 (Homo sapiens), the Kd was 880 nM.

As to “ML1: monomeric peptide spanning 118Leu-140Gly of helix C of EPO; prototype for second-generation EPO-derived peptide (LQLHVDKAVSGLRSLTTLLRALG)”, the “Cell viability (neuroprotective effect) against H2O2” value in test [2] is recorded as “a better neuroprotective effect than reEPO”. The “Cell proliferation (cell number)” value in test [3] is listed as “did not induce proliferation”. Also, the “Level of reactive oxygen species (ROS) induced by H2O2” value in test [4] is listed as “decreased the levels of reactive oxygen species (ROS)”.

As for “ML4: monomeric peptide spanning 127Ser-140Gly of helix C of EPO”, in test [2], the “Cell viability (neuroprotective effect) against H2O2” value is reported as “showed a neuroprotective effect”.

B1: ML1 (peptide, UniProt P01588 118-140, looked up)
peptide: LQLHVDKAVSGLRSLTTLLRALG
notes: Monomeric peptide; also called ML1 prototype; source: synthetic peptide (solid-phase synthesis, monomer, >95% purity; bought: Peptron Inc.)
Regarding B1, the binding result in test [5] is “binds”.
